Like-named read-outs stand apart in the source and are kept apart here.

Assay [1] has as its system deposition of melanin pigment on the skin induced by the UV light irradiation. Put plainly: Animal test for the confirmation of whitening effect (UV-induced skin pigmentation, test feed). The assay is classed as in vivo, Brown guinea pigs. Particulars: 4 weeks; for Evaluation Results CI: number of 7 animals ranked Conspicuous Imp.; for Evaluation Results MI: number of 7 animals ranked Medium Imp.; for Evaluation Results NC: number of 7 animals ranked No Change; for Evaluation Results SI: number of 7 animals ranked Slight Imp. The text has this:
More specifically, the whitening effect can be evaluated by removing a half of the hair on the back of each brown guinea pig, keeping these animals over 2 weeks while irradiating the hair-removed area with a UV lamp, dividing these guinea pigs into groups in such a manner that there is not any difference in the degree of the melanin pigmentation induced by the UN light irradiation, allowing the animals in each group to freely take a test food comprising a feed having a low vitamin C content to which a variety of triterpenes have been added and keeping these animals over additional 4 weeks to evaluate the degree of skin pigmentation while comparing the same with those observed for a control group and for a positive control group.
Brown guinea pigs (5-week-old male animals) were preliminarily kept for one week using a commercially available feed (CG-7 available from Nippon Kurea Company), a half of the hair on the back was removed and the hair-removed portion on the back was irradiated with light rays emitted from a UV lamp of 1.2 mW for 5 minutes on the 1st day and then with light rays emitted from a UV lamp of 1.0 mW for 5 minutes on the 2nd and 3rd days. Subsequently, these animals were kept over 2 weeks using a feed having a low vitamin C content (200.0 mg/kg feed), these guinea pigs were divided into 12 groups (comprising 7 animals each) in such a manner that there was not observed any difference in the degree of deposition of melanin pigment on the skin induced by the UV light irradiation between groups and then the animals were allowed to freely ingest each test feed comprising the feed having a low vitamin C content to which each triterpene had been added in an amount specified in the following Table 2. In this respect, however, the vitamin C-deficient feed per se was supplied to the control group and a vitamin C-supplemented feed was supplied to the positive control group. After 4 weeks from the supply of the test feed, the degree of the pigmentation of the skin was evaluated according to the following criteria.

Assay [2] relates to B-16 melanoma cells. Nature of the assay: Evaluation of melanin production-inhibitory function (degree of whiteness of cultured cells). As to Evaluation of Melanin Production-Inhibition (degree of whiteness of cells): key: ++: The degree of whiteness is higher than that observed for the positive control; +: The degree of whiteness is almost identical to that of the positive control; ±: The degree of whiteness is not higher than that observed for the positive control, but higher than that observed for control; −: The degree of whiteness is almost identical to that observed for the control. As to conditions: for melanin production-inhibitory function relative to that observed for the positive control/standard: compared with 450 ppm of vitamin C-magnesium phosphate. It counts as cell-based. From the text: The melanin production-inhibitory function of the 5-membered ring-containing triterpenes incorporated into the foods or beverages and orally administered whitening agents of the present invention can be determined by a test method, which makes use of cultured melanocytes. The term “melanocyte(s)” used herein means cells having an ability of producing melanin and when cultivating these cells in the usual manner, the cells are blackened due to the accumulation of melanin pigment thus produced. Contrary to this, if a substance having such a melanin production-inhibitory function is incorporated into this cultivation system, the melanin production is suppressed and the skin is relatively whitened. The melanin production-inhibitory function can likewise be evaluated on the basis of this degree of relative whitening.
A culture medium (2 mL/well) was dispensed to a 6-well plate, a predetermined amount of B-16 melanoma cells was inoculated into the culture medium in each well and the cells were cultured at 37° C. and 5% CO2 by allowing the culture medium to stand. On the next day, a solution of test sample (each 5-membered ring-containing triterpene to be evaluated) having a predetermined concentration was added to and mixed with the culture medium and the cultivation was continued. On the 5th day from the initiation of the cultivation, the culture medium was exchanged and the test sample solution was again added to each well. On the next day, the culture medium was removed from each well to thus recover the cells, followed by washing the cells with PBS (phosphate-buffered physiological saline) and evaluation of the desired function based on the degree of whiteness of the cells. In this connection, the melanin production-inhibitory effect was evaluated by comparing the resulting degree of whiteness with that observed when 450 ppm of vitamin C-magnesium phosphate having a known effect was added instead of the test sample solution (positive control) and that observed when any test sample was not added (control) according to the following criteria.
The evaluation criteria for the degree of whiteness of cells are as follows: […]

The mark [3] stands for this setting: 500.0 mg/kg feed, free ingestion.
Setting [4] is: Concentration 2 ppm, rank vs 450 ppm vitamin C-magnesium phosphate.
[5] abbreviates: Concentration 6 ppm, rank vs 450 ppm vitamin C-magnesium phosphate.
Where [6] appears, read: Concentration 10 ppm, rank vs 450 ppm vitamin C-magnesium phosphate.
Setting [7] is: Concentration 4 ppm, rank vs 450 ppm vitamin C-magnesium phosphate.
Where [8] appears, read: Concentration 8 ppm, rank vs 450 ppm vitamin C-magnesium phosphate.
Setting [9] is: positive control group, 2500.0 mg/kg feed.
[10] abbreviates: Concentration 25 ppm, rank vs 450 ppm vitamin C-magnesium phosphate.
Setting [11] is: Concentration 50 ppm, rank vs 450 ppm vitamin C-magnesium phosphate.
[12] abbreviates: Concentration 15 ppm, rank vs 450 ppm vitamin C-magnesium phosphate.

On to `C[C@H]1[C@H](C)CC[C@]2(CO)CC[C@]3(C)C(=CC[C@@H]4[C@@]5(C)CC[C@H](O)C(C)(C)[C@@H]5CC[C@]43C)[C@H]12` [Uvaol], for which, in assay [1] (setting [3]), the “Evaluation Results CI” value is recorded as 1, the “Evaluation Results MI” value worked out at 4, the “Evaluation Results NC” value is 1 and the “Evaluation Results SI” value turned out to be 1. For the same compound, the “Evaluation of Melanin Production-Inhibition (degree of whiteness of cells)” value in assay [2] (setting [4]) is recorded as “−”. Besides, in assay [2] (setting [5]), the “Evaluation of Melanin Production-Inhibition (degree of whiteness of cells)” value is reported as “−”. Moreover, the “Evaluation of Melanin Production-Inhibition (degree of whiteness of cells)” value in assay [2] (setting [6]) was “+”. The “melanin production-inhibitory function relative to that observed for the positive control/standard” value in assay [2] is given as “about 40 times”.
Consider `CCOC(=O)[C@]12CC[C@@H](C)[C@H](C)[C@H]1C1=CC[C@@H]3[C@@]4(C)CC[C@H](O)C(C)(C)[C@@H]4CC[C@@]3(C)[C@]1(C)CC2` [Compound of Synthetic Example 6, Ursolic Acid Ethyl Ester], for which the “Evaluation of Melanin Production-Inhibition (degree of whiteness of cells)” value in assay [2] (setting [4]) was “±”; in assay [2] (setting [7]), “+”; in assay [2] (setting [5]), “++”; in assay [2] (setting [8]), “++”; in assay [2] (setting [6]), “++”. For the same compound, the “melanin production-inhibitory function relative to that observed for the positive control/standard” value in assay [2] is recorded as “about 110 times”.
As to `O=C1O[C@H]([C@@H](O)CO)C(O)=C1O` [L-Ascorbic acid, reference compound], in assay [1] (setting [9]), the “Evaluation Results CI” value came to 0, the “Evaluation Results MI” value is 1, the “Evaluation Results NC” value is on record as 2 and the “Evaluation Results SI” value was 4.
Turning to `CC(=O)OCC12CCC(C)(C)CC1C1=CCC3C4(C)CCC(OC(C)=O)C(C)(C)C4CCC3(C)C1(C)CC2` (stereo not shown) [Compound of Synthetic Example 5, 3,28-O-di-Acetyl-Erythrodiol], the “Evaluation of Melanin Production-Inhibition (degree of whiteness of cells)” value in assay [2] (setting [4]) is listed as “−”; in assay [2] (setting [5]), “±”; in assay [2] (setting [6]), “±”; in assay [2] (setting [10]), “+”; in assay [2] (setting [11]), “+”. Moreover, the “melanin production-inhibitory function relative to that observed for the positive control/standard” value in assay [2] is “about 20 times”.
Consider `O=c1cc(CO)occ1O` [Kojic acid, reference compound], for which the “Evaluation of Melanin Production-Inhibition (degree of whiteness of cells)” value in assay [2] (setting [6]) was “−”; in assay [2] (setting [12]) it was “−”; in assay [2] (setting [10]) it was “−”; in assay [2] (setting [11]) it was “±”; in assay [2] (Concentration 100 ppm, rank vs 450 ppm vitamin C-magnesium phosphate), “±”; in assay [2] (Concentration 200 ppm, rank vs 450 ppm vitamin C-magnesium phosphate) it was “+”. Besides, the “Evaluation of Melanin Production-Inhibition (degree of whiteness of cells)” value was “++” in assay [2] (Concentration 300 ppm, rank vs 450 ppm vitamin C-magnesium phosphate) and “++” in assay [2] (Concentration 450 ppm, rank vs 450 ppm vitamin C-magnesium phosphate).
For `C=C(C)[C@@H]1CC[C@]2(C(=O)OCC)CC[C@]3(C)[C@H](CC[C@@H]4[C@@]5(C)CC[C@H](O)C(C)(C)[C@@H]5CC[C@]43C)[C@@H]12` [Compound of Synthetic Example 8, Betulinic Acid Ethyl Ester], the “Evaluation of Melanin Production-Inhibition (degree of whiteness of cells)” value in assay [2] (setting [4]) is recorded as “−”; in assay [2] (setting [5]) it was “±”; in assay [2] (setting [6]) it was “±”; in assay [2] (setting [10]) it was “+”; in assay [2] (setting [11]), “+”. Also, the “melanin production-inhibitory function relative to that observed for the positive control/standard” value in assay [2] was “about 20 times”.
In the case of `CC(=O)OC[C@]12CC[C@@H](C)[C@H](C)[C@H]1C1=CC[C@@H]3[C@@]4(C)CC[C@H](OC(C)=O)C(C)(C)[C@@H]4CC[C@@]3(C)[C@]1(C)CC2` [Compound of Synthetic Example 7, 3,28-O-di-Acetyl-Uvaol], the “Evaluation of Melanin Production-Inhibition (degree of whiteness of cells)” value in assay [2] (setting [4]) is on record as “−”; in assay [2] (setting [5]), “−”; in assay [2] (setting [6]), “±”; in assay [2] (setting [10]), “+”; in assay [2] (setting [11]), “+”. Besides, in assay [2], the “melanin production-inhibitory function relative to that observed for the positive control/standard” value is given as “about 20 times”.
As to `C=C(C)[C@@H]1CC[C@]2(COC(C)=O)CC[C@]3(C)[C@H](CC[C@@H]4[C@@]5(C)CC[C@H](OC(C)=O)C(C)(C)[C@@H]5CC[C@]43C)[C@@H]12` [Compound of Synthetic Example 9, 3,28-O-di-Acetyl-Betulin], the “Evaluation of Melanin Production-Inhibition (degree of whiteness of cells)” value in assay [2] (setting [4]) was “−”; in assay [2] (setting [5]), “−”; in assay [2] (setting [6]), “±”; in assay [2] (setting [10]) it was “±”; in assay [2] (setting [11]), “+”. The “melanin production-inhibitory function relative to that observed for the positive control/standard” value in assay [2] was “about 10 times”.
Regarding `CC1(C)CC[C@]2(C(=O)O)CC[C@]3(C)C(=CC[C@@H]4[C@@]5(C)C[C@@H](O)[C@H](O)C(C)(C)[C@@H]5CC[C@]43C)[C@@H]2C1` [Purified maslinic acid 3, maslinic acid], the “Evaluation of Melanin Production-Inhibition (degree of whiteness of cells)” value in assay [2] was “± and + and ++”.
Consider “2,3-O-di-Triethylsilyl-Maslinic Acid Triethylsilyl Ester [Compound of Synthetic Example 3]”, for which the “Evaluation of Melanin Production-Inhibition (degree of whiteness of cells)” value in assay [2] (setting [4]) is given as “−”; in assay [2] (setting [5]) it was “±”; in assay [2] (setting [6]), “+”; in assay [2] (setting [10]), “+”; in assay [2] (setting [11]), “+”. Besides, the “melanin production-inhibitory function relative to that observed for the positive control/standard” value in assay [2] is given as “about 40 times”.
Regarding “2,3-O-di-Stearoyl-Maslinic Acid Ethyl Ester [Compound of Synthetic Example 4]”, the “Evaluation of Melanin Production-Inhibition (degree of whiteness of cells)” value was “±” in assay [2] (setting [4]); “±” in assay [2] (setting [7]); “+” in assay [2] (setting [5]); “++” in assay [2] (setting [8]); “++” in assay [2] (setting [6]); “++” in assay [2] (setting [12]). Also, the “melanin production-inhibitory function relative to that observed for the positive control/standard” value in assay [2] is “about 75 times”.

Values taken from patent US20040086553A1, “Foods and beverages for whitening and orally administered whitening agents” (The Nisshin OilliO, Ltd., priority 2000, published 2004).
